Our source for the IC50 values is patent publication US9163008B2, “Pyrimidines as sodium channel blockers” (Purdue Pharma, L.P., priority 2011, dated 2015).

What is called IC50 is the point on the concentration scale where inhibition reaches its midpoint.

In one assay the target is human Nav1.7 (Homo sapiens (Human), UniProt Q15858). Briefly: FLIPR sodium dye assay (CoroNa Green) with KCl and test article pre-incubation.
human Nav1.7, sequence (Q15858 other isoform, or with tags, fused parts or gaps): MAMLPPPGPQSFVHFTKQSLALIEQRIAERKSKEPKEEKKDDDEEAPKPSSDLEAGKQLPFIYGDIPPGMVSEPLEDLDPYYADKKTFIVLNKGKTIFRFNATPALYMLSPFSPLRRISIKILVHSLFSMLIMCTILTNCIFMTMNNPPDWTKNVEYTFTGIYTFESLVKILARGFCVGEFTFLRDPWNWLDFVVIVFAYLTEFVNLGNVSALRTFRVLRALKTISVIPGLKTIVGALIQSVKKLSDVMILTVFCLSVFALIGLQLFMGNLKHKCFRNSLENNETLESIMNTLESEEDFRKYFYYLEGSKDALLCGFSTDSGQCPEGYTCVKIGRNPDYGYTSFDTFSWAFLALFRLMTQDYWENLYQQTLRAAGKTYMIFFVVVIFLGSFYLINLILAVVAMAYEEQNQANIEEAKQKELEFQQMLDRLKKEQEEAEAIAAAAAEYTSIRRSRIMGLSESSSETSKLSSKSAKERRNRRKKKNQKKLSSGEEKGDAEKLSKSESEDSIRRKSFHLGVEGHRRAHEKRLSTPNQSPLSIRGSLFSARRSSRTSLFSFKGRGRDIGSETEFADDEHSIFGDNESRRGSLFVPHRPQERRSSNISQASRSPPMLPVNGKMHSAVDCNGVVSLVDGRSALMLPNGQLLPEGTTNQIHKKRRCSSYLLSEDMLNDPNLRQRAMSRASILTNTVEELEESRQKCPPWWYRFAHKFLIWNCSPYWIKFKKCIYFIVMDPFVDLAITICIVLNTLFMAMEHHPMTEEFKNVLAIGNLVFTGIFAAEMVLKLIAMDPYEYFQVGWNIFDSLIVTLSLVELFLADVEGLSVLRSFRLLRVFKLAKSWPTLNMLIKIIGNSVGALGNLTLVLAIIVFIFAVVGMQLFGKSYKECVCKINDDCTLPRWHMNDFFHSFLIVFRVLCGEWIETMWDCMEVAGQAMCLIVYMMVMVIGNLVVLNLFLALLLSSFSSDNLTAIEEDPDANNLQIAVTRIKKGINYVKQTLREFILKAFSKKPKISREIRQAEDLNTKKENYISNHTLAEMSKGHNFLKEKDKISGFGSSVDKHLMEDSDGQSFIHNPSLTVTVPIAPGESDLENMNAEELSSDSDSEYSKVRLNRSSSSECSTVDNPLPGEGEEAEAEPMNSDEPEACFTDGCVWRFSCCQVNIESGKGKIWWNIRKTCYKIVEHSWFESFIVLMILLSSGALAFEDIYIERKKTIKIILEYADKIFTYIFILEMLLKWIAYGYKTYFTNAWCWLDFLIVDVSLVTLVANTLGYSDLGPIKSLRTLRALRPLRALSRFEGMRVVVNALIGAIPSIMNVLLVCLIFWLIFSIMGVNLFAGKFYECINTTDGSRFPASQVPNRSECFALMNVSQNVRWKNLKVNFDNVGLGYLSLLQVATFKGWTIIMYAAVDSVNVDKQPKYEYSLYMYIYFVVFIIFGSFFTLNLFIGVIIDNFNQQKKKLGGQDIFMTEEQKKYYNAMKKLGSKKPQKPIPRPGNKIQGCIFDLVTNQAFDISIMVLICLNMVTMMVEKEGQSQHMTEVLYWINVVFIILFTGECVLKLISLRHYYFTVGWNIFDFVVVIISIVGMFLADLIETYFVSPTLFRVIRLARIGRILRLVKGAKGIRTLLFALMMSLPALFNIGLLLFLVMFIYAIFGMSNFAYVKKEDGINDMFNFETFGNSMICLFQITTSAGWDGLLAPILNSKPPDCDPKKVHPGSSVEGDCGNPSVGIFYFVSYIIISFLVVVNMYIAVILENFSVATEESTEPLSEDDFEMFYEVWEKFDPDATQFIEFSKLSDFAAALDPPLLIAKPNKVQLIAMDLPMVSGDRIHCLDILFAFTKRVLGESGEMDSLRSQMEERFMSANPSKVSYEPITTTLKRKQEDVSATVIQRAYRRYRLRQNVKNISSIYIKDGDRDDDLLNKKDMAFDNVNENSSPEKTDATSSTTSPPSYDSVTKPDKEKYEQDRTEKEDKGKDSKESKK
Details: not given
The format is cell-based.
For the compound `NC(=O)c1cc(N2CCCC(C(N)=O)C2)nc(-c2ccc(Oc3ccc(F)cc3)cc2)n1` (stereo not shown) [Cpd No. 24, 6-(3-carbamoylpiperidin-1-yl)-2-(4-(4-fluorophenoxy)phenyl)pyrimidine-4-carboxamide], the IC50 was in the range of 10000 to 20000 nM.

Still in this assay, the particulars now being: read-out: Nav1.7 Activity FLIPR assay IC50.
Consider `NC(=O)c1cc(N2CCC[C@H]2C(N)=O)nc(-c2ccc(Oc3ccc(C(F)(F)F)cc3)cc2)n1` [Cpd No. 91, (S)-6-(2-carbamoylpyrrolidin-1-yl)-2-(4-(4-(trifluoromethyl)phenoxy)phenyl)pyrimidine-4-carboxamide], for which the IC50 amounted to 200 nM.

In the case of `C[C@@H](C(N)=O)N(C)c1cc(C(N)=O)nc(-c2ccc(Oc3ccc(F)cc3)cc2)n1` [Cpd No. 20, (S)-6-((1-amino-1-oxopropan-2-yl)(methyl)amino)-2-(4-(4-fluorophenoxy)phenyl)pyrimidine-4-carboxamide], the IC50 came to 220 nM.

As to `NC(=O)c1cc(N2CCNCC2CO)nc(-c2ccc(Oc3ccc(F)cc3)cc2)n1` (stereo not shown) [Cpd No. 48, 2-(4-(4-fluorophenoxy)phenyl)-6-(2-(hydroxymethyl)piperazin-1-yl)pyrimidine-4-carboxamide], the IC50 is 170 nM.

For `NC(=O)c1cc(NC2(C(N)=O)CC2)nc(-c2ccc(Oc3ccc(F)cc3)cc2)n1` [Cpd No. 8, 6-((1-carbamoylcyclopropyl)amino)-2-(4-(4-fluorophenoxy)phenyl)pyrimidine-4-carboxamide], the IC50 turned out to be 420 nM.

`C[C@H](Nc1cc(C(N)=O)nc(Oc2ccc(C(F)(F)F)cc2-c2ccnnc2)n1)C(N)=O` [Cpd No. 72, (S)-6-((1-amino-1-oxopropan-2-yl)amino)-2-(2-(pyridazin-4-yl)-4-(trifluoromethyl)phenoxy)pyrimidine-4-carboxamide]: the IC50 amounted to 1420 nM.

As to `CCOC(=O)[C@@H]1Cc2ccccc2N1c1cc(C(N)=O)nc(-c2ccc(Oc3ccc(F)cc3)cc2)n1` [Cpd No. 16, (S)-ethyl 1-(6-carbamoyl-2-(4-(4-fluorophenoxy)phenyl)pyrimidin-4-yl) indoline-2-carboxylate], the IC50 is greater than 20000 nM.

As to `CC(Nc1cc(C(N)=O)nc(-c2ccc(Oc3ccc(F)cc3)cc2)n1)C(N)=O` (stereo not shown) [Cpd No. 22, 6-((1-amino-1-oxopropan-2-yl)amino)-2-(4-(4-fluorophenoxy)phenyl)pyrimidine-4-carboxamide], the IC50 came out at 550 nM.

Take `NC(=O)c1cc(N2CCC[C@H]2C(N)=O)nc(-c2ccc(Oc3ccc(Cl)cc3F)cc2)n1` [compound 78, (S)-6-(2-carbamoylpyrrolidin-1-yl)-2-(4-(4-chloro-2-fluorophenoxy)phenyl)pyrimidine-4-carboxamide]: the IC50 worked out at 120 nM.

As for `CC(CC(N)=O)Nc1cc(C(N)=O)nc(-c2ccc(Oc3ccc(F)cc3)cc2)n1` (stereo not shown) [Cpd No. 23, 6-((4-amino-4-oxobutan-2-yl)amino)-2-(4-(4-fluorophenoxy)phenyl)pyrimidine-4-carboxamide], the IC50 was found to be 300 nM.

`C[C@H](Nc1cc(C(N)=O)nc(N2CCC3(CC2)Cc2ccccc2C3)n1)C(N)=O` [compound 73, (S)-6-((1-amino-1-oxopropan-2-yl)amino)-2-(1,3-dihydrospiro[indene-2,4′-piperidin]-1′-yl)pyrimidine-4-carboxamide]: the IC50 amounted to 1800 nM.

With `COC(=O)[C@H](C)Nc1cc(C(=O)O)nc(-c2ccc(Oc3ccc(F)cc3)cc2)n1` [Cpd No. 33, (S)-2-(4-(4-fluorophenoxy)phenyl)-6-((1-methoxy-1-oxopropan-2-yl)amino)pyrimidine-4-carboxylic acid], the IC50 is 970 nM.

Take `C[C@H](Nc1cc(C(N)=O)nc(-c2ccc(O)cc2)n1)C(N)=O` [Cpd No. 65, 6-((S)-1-Carbamoyl-ethylamino)-2-(4-hydroxy-phenyl)-pyrimidine-4-carboxylic acid amide]: the IC50 was greater than 20000 nM.

The same assay, now with this note: recombinant human Nav1.7 in HEK293; veratridine and scorpion venom agonists; read-out: Nav1.7 Activity FLIPR assay IC50.
Regarding `NC(=O)c1cc(NC[C@H](O)C(=O)O)nc(-c2ccc(Oc3ccc(F)cc3)cc2)n1` [Cpd No. 51, (S)-3-((6-carbamoyl-2-(4-(4-fluorophenoxy)phenyl)pyrimidin-4-yl)amino)-2-hydroxypropanoic acid], the IC50 was greater than 20000 nM.

Consider `C[C@H](Nc1cc(C(N)=O)nc(-c2ccnc(Oc3ccc(F)cc3)c2)n1)C(N)=O` [Cpd No. 68, (S)-6-((1-amino-1-oxopropan-2-yl)amino)-2-(2-(4-fluorophenoxy)pyridin-4-yl)pyrimidine-4-carboxamide], for which the IC50 is greater than 20000 nM.

As to `NC(=O)c1cc(N2CCC[C@H]2C(=O)O)nc(-c2ccc(Oc3ccc(F)cc3)cc2)n1` [Cpd No. 30, (S)-1-(6-carbamoyl-2-(4-(4-fluorophenoxy)phenyl)pyrimidin-4-yl)pyrrolidine-2-carboxylic acid], the IC50 is greater than 20000 nM.

`NC(=O)CCNc1cc(C(N)=O)nc(-c2ccc(Oc3ccc(F)cc3)cc2)n1` [Cpd No. 19, 6-((3-amino-3-oxopropyl)amino)-2-(4-(4-fluorophenoxy)phenyl)pyrimidine-4-carboxamide]: the half-maximal inhibitory concentration (IC50) was greater than 20000 nM.

On to `C[C@H](Nc1cc(C(N)=O)nc(N2CCC(Oc3ccc(C#N)cc3)CC2)n1)C(N)=O` [compound 100, (S)-6-((1-amino-1-oxopropan-2-yl)amino)-2-(4-(4-cyanophenoxy)piperidin-1-yl)pyrimidine-4-carboxamide], for which the IC50 worked out at 4570 nM.

Take `NC(=O)c1cc(N2c3ccccc3C[C@H]2C(=O)O)nc(-c2ccc(Oc3ccc(F)cc3)cc2)n1` [Cpd No. 31, (S)-1-(6-carbamoyl-2-(4-(4-fluorophenoxy)phenyl)pyrimidin-4-yl)indoline-2-carboxylic acid]: the IC50 was greater than 20000 nM.

Consider `NC(=O)c1cc(N2c3ccccc3C[C@H]2C(N)=O)nc(-c2ccc(Oc3ccc(F)cc3)cc2)n1` [Example 36], for which the IC50 is greater than 20000 nM.

Regarding `NC(=O)c1cc(NC[C@H](O)C(N)=O)nc(-c2ccc(Oc3ccc(F)cc3)cc2)n1` [Cpd No. 50, (S)-6-((3-amino-2-hydroxy-3-oxopropyl)amino)-2-(4-(4-fluorophenoxy)phenyl)pyrimidine-4-carboxamide], the IC50 was greater than 20000 nM.

For the compound `O=C(O)c1cc(N2CCC[C@H]2C(=O)O)nc(-c2ccc(Oc3ccc(F)cc3)cc2)n1` [Cpd No. 29, (S)-6-(2-carboxypyrrolidin-1-yl)-2-(4-(4-fluorophenoxy)phenyl)pyrimidine-4-carboxylic acid], the IC50 was greater than 20000 nM.

Consider `C[C@H](Nc1cc(C(N)=O)nc(-c2ccc(Oc3ccc(F)cc3)cc2)n1)C(=O)O` [Cpd No. 28, (S)-2-((6-carbamoyl-2-(4-(4-fluorophenoxy)phenyl)pyrimidin-4-yl)amino)propanoic acid], for which the IC50 lay in the range of 10000 to 20000 nM.

As to `C[C@H](Nc1cc(C(N)=O)nc(N2CCN(C(c3ccc(F)cc3)c3ccc(F)cc3)CC2)n1)C(N)=O` [Cpd No. 71, (S)-6-((1-amino-1-oxopropan-2-yl)amino)-2-(4-(bis(4-fluorophenyl)methyl)piperazin-1-yl)pyrimidine-4-carboxamide], the IC50 was greater than 20000 nM.

With `C[C@H](Nc1cc(C(N)=O)nc(-c2ccc(Oc3ccc(C#N)cc3)cc2)n1)C(N)=O` [Cpd No. 66, 6-((S)-1-Carbamoyl-ethylamino)-2-[4-(4-cyano-phenoxy)-phenyl]-pyrimidine-4-carboxylic acid amide], the IC50 stood at 410 nM.

`C[C@H](Nc1cc(C(N)=O)nc(-c2ccc(Oc3ccc(C#N)cn3)cc2)n1)C(N)=O` [Cpd No. 37, (S)-6-((1-amino-1-oxopropan-2-yl)amino)-2-(4-((5-cyanopyridin-2-yl)oxy)phenyl)pyrimidine-4-carboxamide]: the IC50 lay within 10000 to 20000 nM.

Consider `NC(=O)c1cc(NC[C@H](O)CO)nc(-c2ccc(Oc3ccc(F)cc3)cc2)n1` [Cpd No. 46, (S)-6-((2,3-dihydroxypropyl)amino)-2-(4-(4-fluorophenoxy)phenyl)pyrimidine-4-carboxamide], for which the IC50 was greater than 20000 nM.

`C[C@H](Nc1cc(C(N)=O)nc(Oc2ccc(Cl)cc2-c2ccnc(N)c2)n1)C(N)=O` [Cpd No. 67, (S)-6-((1-amino-1-oxopropan-2-yl)amino)-2-(2-(2-aminopyridin-4-yl)-4-chlorophenoxy)pyrimidine-4-carboxamide]: the half-maximal inhibitory concentration (IC50) was greater than 20000 nM.
